Measurements from US20070190523A1 (priority 2002, published 2007).
Like-named read-outs stand apart in the source and are kept apart here.

How the values were obtained:
[1] = test system: mutant HIV-1 with I84V/L90M mutations; type: cell-based
[2] = test system: wild-type HIV-1 strain IIIB; experiment: microbe, parasite or virus in culture; type: cell-based
[3] = biological target: WT (Human immunodeficiency virus type 1 group M subtype B, UniProt P04585); experiment: cell-based; parameters: species or system HIV
[4] = biological target: 84V90M (Human immunodeficiency virus type 1 group M subtype B, UniProt P04585, I572V/L578M); experiment: cell-based; parameters: species or system HIV; conditions: MT-4, 84V90M; read-out: Cell-based assay (MT-4) EC50/nM 84V90M
[5] = test system: recombinant HIV-1 strains with resistance mutations in the protease gene; experiment: Cross-Resistance Profile Assay, whole panel; type: cell-based; conditions: {}
[6] = fold difference in EC50 vs wild type, class symbols
[7] = Human immunodeficiency virus 1, IIIB, MT2, Table 10, class symbols
[8] = Human immunodeficiency virus 1, IIIB, MT2

CCOC(=O)C(C)OP(=O)(Cc1ccc2c(c1)CCN(CC(NC(=O)OC1COC3OCCC13)C(O)CN(CC(C)C)S(=O)(=O)c1ccc(OC)cc1)C2)Oc1ccccc1 (stereo not shown)
I84V/L90M fold change [1, 6]: + (>3 to ≦10) | EC50 [2, 7]: 50 to 500 nM

CCOP(=O)(COc1ccc2c(c1)CCN(CC(NC(=O)OC1COC3OCCC13)C(O)CN(CC(C)C)S(=O)(=O)c1ccc(OC)cc1)C2)OCC (stereo not shown)
I84V/L90M fold change [1, 6]: + (>3 to ≦10) | EC50 [2, 8]: 50 to 500 nM

COc1ccc(S(=O)(=O)N(CC(C)C)CC(O)C(Cc2ccc(C)cc2)NC(=O)OC2COC3OCCC23)cc1 (stereo not shown)
I84V/L90M fold change ([1]; I84V/L90M mutant): + (>3 to ≦10) | EC50 [2, 8]: < 50 nM

COc1ccc(S(=O)(=O)N(CC(C)C)CC(O)C(Cc2ccc(NCP(=O)(O)O)cc2)NC(=O)OC2COC3OCCC23)cc1 (stereo not shown)
EC50 ([2]; read-out: EC50): 50 to 500 nM

Cc1ccc(C(=O)N[C@@H](Cc2ccc(OCP(=O)(Oc3ccccc3)Oc3ccccc3)cc2)[C@H](O)CN(CC(C)C)S(=O)(=O)c2ccc(N)cc2)cc1O
EC50 ([2]; read-out: EC50): 500 to 5000 nM

CC(C)CN(C[C@@H](O)[C@H](Cc1ccc(OCP(=O)(OCc2ccccc2)OC(C)C(=O)OCc2ccccc2)cc1)NC(=O)O[C@H]1CO[C@H]2OCC[C@H]21)S(=O)(=O)c1ccc(OCc2ccccc2)cc1 (stereo partly shown)
EC50 ([2]; read-out: EC50): 500 to 5000 nM

CCOP(=O)(CCCNC(=O)c1cccc(CN2C(=O)N(Cc3cccc(N)c3)C(Cc3ccccc3)C(O)C(O)C2Cc2ccccc2)c1)OCC (stereo not shown)
EC50 [3]: 176 nM

CCOP(=O)(COc1ccc(CC2C(O)C(O)C(Cc3ccccc3)N(Cc3ccccc3)C(=O)N2Cc2ccccc2)cc1)OCC (stereo not shown)
EC50 [4]: 2460 nM | EC50 [3]: 107 nM

Nc1n[nH]c2ccc(CN3C(=O)N(Cc4cccc(OCP(=O)(OCc5ccccc5)OCc5ccccc5)c4)C(Cc4ccccc4)C(O)C(O)C3Cc3ccccc3)cc12 (stereo not shown)
EC50 [3]: 898 nM

CCOP(=O)(COc1cccc(CN2C(=O)N(Cc3ccc4[nH]nc(N)c4c3)C(Cc3ccccc3)C(O)C(O)C2Cc2ccccc2)c1)OCC (stereo not shown)
EC50 [3]: 665 nM

Nc1n[nH]c2ccc(CN3C(=O)N(Cc4ccc(OCP(=O)(OCc5ccccc5)OCc5ccccc5)cc4)C(Cc4ccccc4)C(O)C(O)C3Cc3ccccc3)cc12 (stereo not shown)
EC50 [3]: 2700 nM

CCOP(=O)(COc1ccc(CN2C(=O)N(Cc3ccc4[nH]nc(N)c4c3)C(Cc3ccccc3)C(O)C(O)C2Cc2ccccc2)cc1)OCC (stereo not shown)
EC50 [3]: 2480 nM

CC(C)CN(C[C@@H](O)[C@H](Cc1ccccc1)NC(=O)O[C@H]1CCOC1)S(=O)(=O)c1ccc(N)cc1 [Amprenavir, amprenavir]
Total No. of Resistant Viruses [5]: 4

CCOP(=O)(COCCCCN1C(=O)N(Cc2ccc3[nH]nc(N)c3c2)C(Cc2ccccc2)C(O)C(O)C1Cc1ccccc1)OCC (stereo not shown) [CH2OCH2PO3Et2]
EC50 [3]: 119 nM

Nc1n[nH]c2ccc(CN3C(=O)N(CCCCOCP(=O)(O)O)C(Cc4ccccc4)C(O)C(O)C3Cc3ccccc3)cc12 (stereo not shown) [CH2OCH2PO3H2]
EC50 [3]: 1760 nM

CCCCN1C(=O)N(Cc2ccc3[nH]nc(N)c3c2)C(Cc2ccccc2)C(O)C(O)C1Cc1ccccc1 (stereo not shown) [DMP-851]
EC50 [3]: 54 nM

CCCCOC(=O)C(Cc1ccccc1)NP(=O)(COc1ccc(CC(NC(=O)OC2COC3OCCC23)C(O)CN(CC(C)C)S(=O)(=O)c2ccc(OC)cc2)cc1)NC(Cc1ccccc1)C(=O)OCCCC (stereo not shown) [Example 16j]
EC50 ([2]; read-out: Anti-HIV-1 Cell Culture Activity EC50): 35 ± 7 nM

COc1ccc(S(=O)(=O)N(CC(C)C)C[C@@H](O)[C@H](Cc2ccccc2)NC(=O)O[C@H]2CO[C@H]3OCC[C@H]32)cc1 [Example 94-003]
Total No. of Resistant Viruses [5]: 3

CC(C)(C)NC(=O)[C@@H]1CN(Cc2cccnc2)CCN1C[C@@H](O)C[C@@H](Cc1ccccc1)C(=O)N[C@H]1c2ccccc2C[C@H]1O [Indinavir]
Total No. of Resistant Viruses [5]: 8

Cc1c(O)cccc1C(=O)N[C@@H](CSc1ccccc1)[C@H](O)CN1C[C@H]2CCCC[C@H]2C[C@H]1C(=O)NC(C)(C)C [Nelfinavir, nelfinavir]
Total No. of Resistant Viruses [5]: 9

Nc1n[nH]c2ccc(CN3C(=O)N(CCCOCP(=O)(O)O)C(Cc4ccccc4)C(O)C(O)C3Cc3ccccc3)cc12 (stereo not shown) [OCH2PO3H2]
EC50 [4]: > 600 nM | EC50 ([3]; MT-4, WT, read-out: Cell-based assay (MT-4) EC50/nM WT): 1070 nM

CCOP(=O)(COc1ccc(CC2C(O)C(O)C(Cc3ccc(OC)cc3)N(Cc3cccc(N)c3)C(=O)N2Cc2cccc(N)c2)cc1)OCC (stereo not shown) [OCH3, Ph-mNH2, OCH2PO3Et2]
EC50 [3]: 63 nM

CC(C)CN(CC(O)C(Cc1ccc(O)cc1)NC(=O)OC1COC2OCCC12)S(=O)(=O)c1ccc(OCP(=O)(O)O)cc1 (stereo not shown) [OH, OH]
EC50 [2, 8]: > 5000 nM

CCOP(=O)(COc1ccc(CC(NC(=O)OC2CCOC2)C(O)CN(CC(C)C)S(=O)(=O)c2ccc(OC)cc2)cc1)OCC (stereo not shown) [OMe, OEt]
I84V/L90M fold change ([1]; I84V/L90M mutant): ++ (>10 to ≦30) | EC50 [2, 8]: < 50 nM

CC(C)c1nc(CN(C)C(=O)N[C@H](C(=O)N[C@@H](Cc2ccccc2)C[C@H](O)[C@H](Cc2ccccc2)NC(=O)OCc2cncs2)C(C)C)cs1 [Ritonavir]
Total No. of Resistant Viruses [5]: 10

CC(C)(C)NC(=O)[C@@H]1C[C@@H]2CCCC[C@@H]2CN1C[C@@H](O)[C@H](Cc1ccccc1)NC(=O)[C@H](CC(N)=O)NC(=O)c1ccc2ccccc2n1 [Saquinavir]
Total No. of Resistant Viruses [5]: 4

CCOC(=O)C(CC)NP(=O)(COc1ccc(CC(NC(=O)OC2COC3OCCC23)C(O)CN(CC(C)C)S(=O)(=O)c2ccc(OC)cc2)cc1)NC(CC)C(=O)OCC (stereo not shown) [drawing 606 R1=Aba-Et R2=Aba-Et]
EC50 [2, 8]: < 50 nM

CCOC(=O)COP(=O)(COc1ccc(CC(NC(=O)OC2COC3OCCC23)C(O)CN(CC(C)C)S(=O)(=O)c2ccc(OC)cc2)cc1)OCC(=O)OCC (stereo not shown) [drawing 607 R1=Glc-Et R2=Glc-Et]
I84V/L90M fold change [1, 6]: − (≦3) | EC50 [2, 8]: 500 to 5000 nM

COc1ccc(S(=O)(=O)N(CC(C)C)CC(O)C(Cc2ccc(OCP(=O)(O)OC(C)C(=O)O)cc2)NC(=O)OC2COC3OCCC23)cc1 [drawing 609 R1=OH R2=(R)Lac-OH]
I84V/L90M fold change [1, 6]: − (≦3)

COc1ccc(S(=O)(=O)N(CC(C)C)CC(O)C(Cc2ccc(OCP(=O)(O)OC(C)C(=O)O)cc2)NC(=O)OC2COC3OCCC23)cc1 (stereo not shown) [drawing 609 R1=OH R2=Lac-OH]
I84V/L90M fold change [1, 6]: − (≦3)

CCOC(=O)COP(=O)(COc1ccc(CC(NC(=O)OC2COC3OCCC23)C(O)CN(CC(C)C)S(=O)(=O)c2ccc(OC)cc2)cc1)Oc1ccccc1 (stereo not shown) [drawing 609 R1=OPh R2=Glc-Et]
I84V/L90M fold change [1, 6]: − (≦3) | EC50 [2, 7]: < 50 nM

CCCCOC(=O)C(C)OP(=O)(COc1ccc(CC(NC(=O)OC2COC3OCCC23)C(O)CN(CC(C)C)S(=O)(=O)c2ccc(OC)cc2)cc1)Oc1ccccc1 (stereo not shown) [drawing 609 R1=OPh R2=Lac-Bu]
I84V/L90M fold change [1, 6]: − (≦3)

COc1ccc(S(=O)(=O)N(CC(C)C)CC(O)C(Cc2ccc(OCP(=O)(Oc3ccccc3)OC(C)C(=O)OC(C)C)cc2)NC(=O)OC2COC3OCCC23)cc1 (stereo not shown) [drawing 609 R1=OPh R2=Lac-iPr]
I84V/L90M fold change [1, 6]: − (≦3)

CCOP(=O)(CON=Cc1ccc(CC(NC(=O)OC2COC3OCCC23)C(O)CN(CC(C)C)S(=O)(=O)c2ccc(OC)cc2)cc1)OCC (stereo not shown) [drawing 615 R1=Et R2=Et]
I84V/L90M fold change [1, 6]: − (≦3)

Nc1n[nH]c2ccc(CN3C(=O)N(Cc4cccc(OCP(=O)(O)O)c4)C(Cc4ccccc4)C(O)C(O)C3Cc3ccccc3)cc12 (stereo not shown) [m-OCH2PO3H2]
EC50 [3]: > 12000 nM

Nc1n[nH]c2ccc(CN3C(=O)N(Cc4cccc(OCP(=O)(O)Oc5ccccc5)c4)C(Cc4ccccc4)C(O)C(O)C3Cc3ccccc3)cc12 (stereo not shown) [m-OCH2PO3HPh]
EC50 [3]: 1750 nM

Nc1n[nH]c2ccc(CN3C(=O)N(Cc4cccc(OCP(=O)(Oc5ccccc5)Oc5ccccc5)c4)C(Cc4ccccc4)C(O)C(O)C3Cc3ccccc3)cc12 (stereo not shown) [m-OCH2PO3Ph2]
EC50 [3]: 1350 nM

Nc1n[nH]c2ccc(CN3C(=O)N(Cc4cccc(O)c4)C(Cc4ccccc4)C(O)C(O)C3Cc3ccccc3)cc12 (stereo not shown) [m-OH]
EC50 [3]: 151 nM
